Legend:
[1] = test system: 786-0; test: Cytotoxicity against human 786-0 cells assessed as cell growth at 10 uM after 72 hrs by SRB assay relative to control; assay type: functional; settings: 786-0, 72 h, read-out: Activity
[2] = molecular target: Vascular endothelial growth factor receptor 2 (Homo sapiens, UniProt P35968); test: Inhibition of human VEGFR2 at 10 uM after 20 to 40 mins by liquid scintillation counting analysis in presence of […]; parameters: scale not given: the % may be the effect or the level left
Vascular endothelial growth factor receptor 2, sequence (P35968 whole entry): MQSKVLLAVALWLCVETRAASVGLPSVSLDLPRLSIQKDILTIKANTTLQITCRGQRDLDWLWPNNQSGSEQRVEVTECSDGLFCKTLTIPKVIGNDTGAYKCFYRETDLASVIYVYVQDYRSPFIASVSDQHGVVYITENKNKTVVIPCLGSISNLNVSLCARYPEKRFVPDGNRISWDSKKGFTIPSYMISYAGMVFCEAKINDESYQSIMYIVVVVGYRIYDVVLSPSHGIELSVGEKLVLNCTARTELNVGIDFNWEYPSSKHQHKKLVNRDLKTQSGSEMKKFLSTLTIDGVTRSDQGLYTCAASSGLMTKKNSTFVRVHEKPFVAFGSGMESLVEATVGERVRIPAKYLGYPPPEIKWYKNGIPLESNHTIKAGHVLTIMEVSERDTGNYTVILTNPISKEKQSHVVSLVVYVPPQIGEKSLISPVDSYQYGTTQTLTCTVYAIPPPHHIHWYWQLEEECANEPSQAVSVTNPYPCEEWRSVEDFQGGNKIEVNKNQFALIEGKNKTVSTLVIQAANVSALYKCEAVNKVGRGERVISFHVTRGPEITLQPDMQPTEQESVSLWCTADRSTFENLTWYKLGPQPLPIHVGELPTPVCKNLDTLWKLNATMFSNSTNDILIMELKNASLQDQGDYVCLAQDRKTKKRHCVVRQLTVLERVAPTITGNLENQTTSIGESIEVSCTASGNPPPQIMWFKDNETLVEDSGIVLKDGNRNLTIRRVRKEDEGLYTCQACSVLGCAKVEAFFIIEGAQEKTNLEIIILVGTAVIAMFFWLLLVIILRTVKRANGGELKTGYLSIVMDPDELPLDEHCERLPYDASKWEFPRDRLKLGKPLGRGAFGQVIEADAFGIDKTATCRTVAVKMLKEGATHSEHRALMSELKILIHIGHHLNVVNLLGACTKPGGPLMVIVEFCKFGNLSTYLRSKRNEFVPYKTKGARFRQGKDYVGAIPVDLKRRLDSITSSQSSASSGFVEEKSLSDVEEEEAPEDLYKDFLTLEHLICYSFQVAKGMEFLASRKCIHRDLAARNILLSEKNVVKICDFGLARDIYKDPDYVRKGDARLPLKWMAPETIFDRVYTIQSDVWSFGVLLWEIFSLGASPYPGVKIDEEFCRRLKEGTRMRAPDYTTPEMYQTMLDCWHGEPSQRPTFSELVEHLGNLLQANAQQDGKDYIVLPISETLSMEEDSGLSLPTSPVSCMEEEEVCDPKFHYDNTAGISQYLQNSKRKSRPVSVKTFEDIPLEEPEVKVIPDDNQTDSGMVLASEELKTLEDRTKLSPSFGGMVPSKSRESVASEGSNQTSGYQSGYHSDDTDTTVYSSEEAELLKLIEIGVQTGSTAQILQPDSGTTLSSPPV

[3] = test system: SR; test: Cytotoxicity against human SR cells assessed as cell growth at 10 uM after 72 hrs by SRB assay relative to control; assay type: functional; settings: read-out: Activity
[4] = test system: SK-MEL-2; test: Cytotoxicity against human SK-MEL-2 cells assessed as cell growth at 10 uM after 72 hrs by SRB assay relative to control; assay type: functional; settings: SK-MEL-2, 72 h, read-out: Activity
[5] = Cytotoxicity against human SNB75 cells assessed as cell growth at 10 uM after 72 hrs by SRB assay relative to control; assay type: functional; settings: SNB-75, 72 h, read-out: Activity
[6] = Cytotoxicity against human TK10 cells assessed as cell growth at 10 uM after 72 hrs by SRB assay relative to control; assay type: functional; settings: TK-10, 72 h, read-out: Activity
[7] = Cytotoxicity against human DU145 cells assessed as cell growth at 10 uM after 72 hrs by SRB assay relative to control; assay type: functional; settings: DU-145, 72 h, read-out: Activity
[8] = test system: CCRF-CEM; test: Cytotoxicity against human CCRF-CEM cells assessed as cell growth at 10 uM after 72 hrs by SRB assay relative to control; assay type: functional; settings: read-out: Activity
[9] = Cytotoxicity against human HCT15 cells assessed as cell growth at 10 uM after 72 hrs by SRB assay relative to control; assay type: functional; settings: HCT-15, 72 h, read-out: Activity
[10] = Cytotoxicity against human RXF393 cells assessed as cell growth at 10 uM after 72 hrs by SRB assay relative to control; assay type: functional; settings: RXF 393, 72 h, read-out: Activity
[11] = test system: M14; test: Cytotoxicity against human M14 cells assessed as cell growth at 10 uM after 72 hrs by SRB assay relative to control; assay type: functional; settings: M14, 72 h, read-out: Activity
[12] = test system: SK-MEL-5; test: Cytotoxicity against human SK-MEL-5 cells assessed as cell growth at 10 uM after 72 hrs by SRB assay relative to control; assay type: functional; settings: SK-MEL-5, 72 h, read-out: Activity
[13] = test system: MDA-MB-468; test: Cytotoxicity against human MDA-MB-468 cells assessed as cell growth at 10 uM after 72 hrs by SRB assay relative to control; assay type: functional; settings: MDA-MB-468, 72 h, read-out: Activity
[14] = Cytotoxicity against human SKOV3 cells assessed as cell growth at 10 uM after 72 hrs by SRB assay relative to control; assay type: functional; settings: SK-OV-3, 72 h, read-out: Activity
[15] = test system: MDA-MB-231; test: Cytotoxicity against human MDA-MB-231 cells assessed as cell growth at 10 uM after 72 hrs by SRB assay relative to control; assay type: functional; settings: MDA-MB-231, 72 h, read-out: Activity
[16] = test system: SN12C; test: Cytotoxicity against human SN12C cells assessed as cell growth at 10 uM after 72 hrs by SRB assay relative to control; assay type: functional; settings: read-out: Activity
[17] = Cytotoxicity against human BT549 cells assessed as cell growth at 10 uM after 72 hrs by SRB assay relative to control; assay type: functional; settings: BT-549, 72 h, read-out: Activity
[18] = Cytotoxicity against human HOP62 cells assessed as cell growth at 10 uM after 72 hrs by SRB assay relative to control; assay type: functional; settings: HOP-62, 72 h, read-out: Activity
[19] = test system: SK-MEL-28; test: Cytotoxicity against human SK-MEL-28 cells assessed as cell growth at 10 uM after 72 hrs by SRB assay relative to control; assay type: functional; settings: SK-MEL-28, 72 h, read-out: Activity
[20] = test system: Malme-3M; test: Cytotoxicity against human MALME-3M cells assessed as cell growth at 10 uM after 72 hrs by SRB assay relative to control; assay type: functional; settings: read-out: Activity
[21] = test system: KM12; test: Cytotoxicity against human KM12 cells assessed as cell growth at 10 uM after 72 hrs by SRB assay relative to control; assay type: functional; settings: KM12, 72 h, read-out: Activity
[22] = Cytotoxicity against human HL-60(TB) cells assessed as cell growth at 10 uM after 72 hrs by SRB assay relative to control; assay type: functional; settings: HL-60, 72 h, read-out: Activity
[23] = test system: A549; test: Cytotoxicity against human A549 cells assessed as cell growth at 10 uM after 72 hrs by SRB assay relative to control; assay type: functional; settings: A549, 72 h, read-out: Activity
[24] = test system: NCI-H460; test: Cytotoxicity against human NCI-H460 cells assessed as cell growth at 10 uM after 72 hrs by SRB assay relative to control; assay type: functional; settings: NCI-H460, 72 h, read-out: Activity
[25] = Cytotoxicity against human HCT116 cells assessed as cell growth at 10 uM after 72 hrs by SRB assay relative to control; assay type: functional; settings: HCT-116, 72 h, read-out: Activity
[26] = test system: NCI-H23; test: Cytotoxicity against human NCI-H23 cells assessed as cell growth at 10 uM after 72 hrs by SRB assay relative to control; assay type: functional; settings: NCI-H23, 72 h, read-out: Activity
[27] = Cytotoxicity against human MOLT4 cells assessed as cell growth at 10 uM after 72 hrs by SRB assay relative to control; assay type: functional; settings: MOLT-4, 72 h, read-out: Activity
[28] = Cytotoxicity against human NCI-ADR-RES cells assessed as cell growth at 10 uM after 72 hrs by SRB assay relative to control; assay type: functional; settings: read-out: Activity
[29] = test system: MDA-MB-435; test: Cytotoxicity against human MDA-MB-435 cells assessed as cell growth at 10 uM after 72 hrs by SRB assay relative to control; assay type: functional; settings: MDA-MB-435, 72 h, read-out: Activity
[30] = Cytotoxicity against human Caki1 cells assessed as cell growth at 10 uM after 72 hrs by SRB assay relative to control; assay type: functional; settings: CAKI-1, 72 h, read-out: Activity
[31] = Cytotoxicity against human SF539 cells assessed as cell growth at 10 uM after 72 hrs by SRB assay relative to control; assay type: functional; settings: SF-539, 72 h, read-out: Activity
[32] = Cytotoxicity against human OVCAR8 cells assessed as cell growth at 10 uM after 72 hrs by SRB assay relative to control; assay type: functional; settings: OVCAR-8, 72 h, read-out: Activity
[33] = Cytotoxicity against human IGROV1 cells assessed as cell growth at 10 uM after 72 hrs by SRB assay relative to control; assay type: functional; settings: IGROV-1, 72 h, read-out: Activity
[34] = Cytotoxicity against human Hs 578T cells assessed as cell growth at 10 uM after 72 hrs by SRB assay relative to control; assay type: functional; settings: read-out: Activity
[35] = Cytotoxicity against human SF268 cells assessed as cell growth at 10 uM after 72 hrs by SRB assay relative to control; assay type: functional; settings: SF-268, 72 h, read-out: Activity
[36] = test system: T47D; test: Cytotoxicity against human T47D cells assessed as cell growth at 10 uM after 72 hrs by SRB assay relative to control; assay type: functional; settings: read-out: Activity

Row | SMILES | growth at 10 µM [1] [%] | Activity [2] [%] | growth at 10 µM [3] [%] | growth at 10 µM [5] [%] | growth at 10 µM [6] [%] | growth at 10 µM [7] [%] | growth at 10 µM [8] [%] | growth at 10 µM [9] [%] | growth at 10 µM [10] [%] | growth at 10 µM [11] [%] | growth at 10 µM [12] [%] | growth at 10 µM [13] [%] | growth at 10 µM [14] [%] | growth at 10 µM [17] [%] | growth at 10 µM [18] [%] | growth at 10 µM [19] [%] | growth at 10 µM [20] [%] | growth at 10 µM [21] [%] | growth at 10 µM [22] [%] | growth at 10 µM [23] [%] | further results
1 | Cc1ccc2nc(Nc3ncnc4c3cnn4-c3ccccc3)sc2c1 | 103 | -1 | 44.8 | 107 | 118 | 103 | 87.9 | 97.8 | 99 | 107 | 92.1 | 80.3 | 112 | 108 | 110 | 95.3 | 87 | 98.9 | 103 | 102 | growth at 10 µM [4]: 109%; growth at 10 µM [15]: 102%; growth at 10 µM [16]: 97.5%; growth at 10 µM [24]: 98.4%; growth at 10 µM [25]: 99.4%; growth at 10 µM [26]: 106%; growth at 10 µM [27]: 102%; growth at 10 µM [28]: 106%; growth at 10 µM [29]: 91.9%; growth at 10 µM [30]: 103%; growth at 10 µM [31]: 101%; growth at 10 µM [32]: 107%; growth at 10 µM [33]: 99.6%; growth at 10 µM [34]: 120%; growth at 10 µM [35]: 114%; growth at 10 µM [36]: 108%
2 | O=c1sc2cc(Nc3ncnc4c3cnn4-c3ccccc3)ccc2n1Cc1ccc(Cl)cc1 | 93.7 | -7 | 80.6 | 88.3 | 105 | 94.5 | 63.6 | 86.5 | 79.5 | 82.8 | 87.2 | 65.9 | 101 | 101 | 94 | 90.1 | 86.4 | 71.6 | 66.9 | 78 | growth at 10 µM [4]: 88%; growth at 10 µM [15]: 57.7%; growth at 10 µM [16]: 75%; growth at 10 µM [24]: 83.5%; growth at 10 µM [25]: 80.3%; growth at 10 µM [26]: 84.7%; growth at 10 µM [27]: 58.6%; growth at 10 µM [28]: 84.8%; growth at 10 µM [29]: 84.2%; growth at 10 µM [30]: 71.6%; growth at 10 µM [31]: 79.2%; growth at 10 µM [32]: 87.9%; growth at 10 µM [33]: 81.8%; growth at 10 µM [34]: 81.1%; growth at 10 µM [35]: 85.6%; growth at 10 µM [36]: 62.3%
3 | c1ccc(COc2ccc(Nc3ncnc4c3cnn4-c3ccccc3)cc2)cc1 | 100 | -5 | 92 | 102 | 111 | 104 | 80.8 | 72.4 | 102 | 101 | 94.3 | 93.1 | 108 | 106 | 104 | 96 | 92.8 | 98.2 | 99.8 | 104 | growth at 10 µM [4]: 115%; growth at 10 µM [15]: 101%; growth at 10 µM [16]: 97.4%; growth at 10 µM [24]: 93.7%; growth at 10 µM [25]: 106%; growth at 10 µM [26]: 109%; growth at 10 µM [27]: 93.1%; growth at 10 µM [28]: 107%; growth at 10 µM [29]: 90.1%; growth at 10 µM [30]: 99.1%; growth at 10 µM [31]: 99.6%; growth at 10 µM [32]: 113%; growth at 10 µM [33]: 100%; growth at 10 µM [34]: 109%; growth at 10 µM [35]: 108%; growth at 10 µM [36]: 100%
4 | Clc1ccc(-n2ncc3c(Nc4ccc(OCc5ccccc5)cc4)ncnc32)cc1 | 103 | 0 | 83.3 | 86.4 | 92.1 | 100 | 78.9 | 87.2 | 97.8 | 93.6 | 94.4 | 91.5 | 99.7 | 107 | 81.6 | 90.4 | 85.1 | 80.2 | 86.9 | 88.8 | growth at 10 µM [24]: 93.1%; growth at 10 µM [25]: 94.8%; growth at 10 µM [26]: 92.7%; growth at 10 µM [27]: 89.6%; growth at 10 µM [28]: 94.5%; growth at 10 µM [29]: 83.2%; growth at 10 µM [30]: 93.7%; growth at 10 µM [31]: 92.4%; growth at 10 µM [32]: 98%; growth at 10 µM [33]: 102%; growth at 10 µM [34]: 96.6%; growth at 10 µM [35]: 99.7%; growth at 10 µM [36]: 82.5%

— ChEMBL document CHEMBL3751764, “Synthesis and in vitro antiproliferative activity of novel pyrazolo[3,4-d]pyrimidine derivatives” (Medchemcomm, 2015)
